From patent US9144578B2, “Fixed-dose association of phytate and zinc” (Universitat De Les Illes Balears, priority 2006, dated 2015)
Entries after “also recorded” stand apart in the source; their conditions may differ.

Tests used:
[1] = in vitro kinetics of precipitation of hydroxyapatite (Example 1, FIG. 1); details: [phosphate]=1.5 mM, [Ca^2+]=60 mg/l, pH=7.5
Description: In said FIG. 1 it is shown that the first curve corresponds to direct precipitation without phytate or Zn^2+. The second (Zn^2+) consists of the addition of 0.038 μM of Zn^2+. […] The third curve (Phytate) corresponds to the precipitation of hydroxyapatite in the presence of 0.38 μM of phytate. […] Finally, the last graph (Phytate+Zn^2+) corresponds to the precipitation in the presence of 0.38 μM of phytate and 0.038 μM of Zn^2+ (phytate-Zn molar ratio 10:1).
An in vitro system was designed to study the kinetics of precipitation of hydroxyapatite. A system using the following experimental conditions: [phosphate]=1.5 mM, [Ca^2+]=60 mg/l, pH=7.5, was used. The kinetics of precipitation of the hydroxyapatite was recorded with a Shimadzu (UV-120-02) spectrophotometer using 3 ml plastic vials and recording the absorbance every 5 minutes at 550 nm.

[2] = in vitro kinetics of precipitation of hydroxyapatite (Example 2, FIG. 2); details: [phosphate]=2.5 mM, [Ca^2+]=60 mg/l, pH=7.5
Description: In said FIG. 2 it is shown that the first series corresponds to the direct precipitation without phytate or Zn^2+. The second consists of the addition of 0.3 μM of Zn^2+. […] The third series corresponds to the precipitation of hydroxyapatite in the presence of 1.5 μM of phytate.
Finally, two series using 1.5 μM phytate and two different concentrations of zinc: Zn^2+: 0.3 μM (phytate-Zn molar ratio 5:1) and 0.15 μM (phytate-Zn molar ratio 10:1), respectively, are shown.
With the same system as in example 1, a system using the following experimental conditions: [phosphate]=2.5 mM, [Ca^2+]=60 mg/l, pH=7.5, was used. The kinetics of precipitation of the hydroxyapatite was recorded with a Shimadzu (UV-120-02) spectrophotometer using 3 ml plastic vials and recording the absorbance every 5 minutes at 550 nm.

Row | Structure (SMILES) | inhibiting effect on precipitation of hydroxyapatite ([1]; 0.038 μM of Zn^2+) | inhibiting effect on precipitation of hydroxyapatite ([2]; 0.3 μM of Zn^2+) | inhibiting effect on precipitation of hydroxyapatite ([1]; 0.38 μM of phytate) | inhibiting effect on precipitation of hydroxyapatite ([2]; 1.5 μM of phytate)
1 | [Zn+2] [Zn^2+] | no inhibiting effect | no inhibiting effect; also recorded: does not show any inhibiting effect |  | 
2 | O=P(O)(O)O[C@H]1[C@H](OP(=O)(O)O)[C@@H](OP(=O)(O)O)[C@H](OP(=O)(O)O)[C@@H](OP(=O)(O)O)[C@H]1OP(=O)(O)O [Phytate, Myo-inositol hexaphosphate] |  |  | significant inhibiting effect | significant inhibiting effect
